Like-named read-outs stand apart in the source and are kept apart here.
Columns and labels:
[1] = cited from earlier work; for hygroscopicity (in words): as described in prior filings
[2] = cited from earlier work
[3] = GMS, 15 to 80% RH, form A comparison (same range as FIG. 6 of WO2017/016512A1); cited from earlier work
Bulk density = type: physicochemical
[4] = Gravimetric moisture sorption (GMS) of crystalline forms of masitinib mesylate; type: physicochemical
Description: Gravimetric moisture sorption/desorption (GMSD) isotherms were recorded with an SPSx-1μ moisture sorption analyzer (ProUmid, Ulm). The measurement cycle was started at ambient relative humidity (RH) of 25%. Relative humidity was then decreased to 5% RH in 5% steps, followed by a further decrease to 3% RH and to 0% RH. Afterwards RH was increased from 0% to 80% RH in a sorption cycle in 5% steps.
The time per step was set to a minimum of 2 hours and a maximum of 6 hours. If an equilibrium condition with a constant mass of ±0.01% within 1 hour was reached before the maximum time for all examined samples the sequential humidity step was applied before the maximum time of 6 hours. If no equilibrium was achieved the consecutive humidity step was applied after the maximum time of 6 hours. The temperature was 25±0.1° C.

[5] = Storage stability of crystalline form M, polymorphic conversion checked by XRPD; type: physicochemical; conditions: for conversion to crystal form I by XRPD / storage stability: 8 weeks at 40° C./75% relative humidity
Description: X-Ray powder diffraction (XRPD) was performed with a PANalytical X'Pert PRO diffractometer equipped with a theta/theta coupled goniometer in transmission geometry, Cu—Kα1,2 radiation (wavelength 0.15419 nm) with a focusing mirror and a solid state PIXcel detector. Diffractograms were recorded at a tube voltage of 45 kV and a tube current of 40 mA, applying a stepsize of 0.013° 2-Theta with 40 s per step (255 channels) in the angular range of 2° to 40° 2-Theta at ambient conditions.

## CS(=O)(=O)O.Cc1ccc(NC(=O)c2ccc(CN3CCN(C)CC3)cc2)cc1Nc1nc(-c2cccnc2)cs1 [form H, salt of masitinib with methane sulfonic acid]
[1]
  hygroscopicity (in words): low hygroscopicity

## masitinib mesylate [DRX2]
[2]; response to the eESR / EP2886543 A1, DRX2 to DRX1 upon heating
  temperatures at which problems with polymorphic conversion occur: above 25 °C

## masitinib mesylate [crystal form I]
[2]; WO 2008/098949 A2
  temperatures at which thermodynamically stable: below 200 °C
[1]; 0% RH to 80% RH, described for DRX I
  water uptake in the range from 0% RH to 80% RH: 4.3 w-%
[1]; 80% RH, WO 2008/098949 A2
  behaviour at 80% relative humidity: remains dry
[1]; listed as DRX1
  hygroscopicity (in words): mildly hygroscopic
[1]; response to the eESR, EP 11170200.7
  weight increase between 0% RH and 80% RH: 4.3 weight-%

## masitinib mesylate [form A]
[1]; listed as crystal form A
  hygroscopicity (in words): remarkably reduced compared to DRX1
[1]; moisture sorption/desorption curves, FIG. 6 of WO2017/016512A1
  reversible loss of water below 10% RH: about 5 weight-%
[3]
  Mass change (water uptake) in the range of from 15-80% RH: 4.0-6.0 w-%

## masitinib mesylate [form M]
Bulk density
  bulk density: 0.14 g/mL
[4]
  hygroscopicity compared with form A: less hygroscopic than form A
[4]; GMS, 15 to 80% RH, 25±0.1° C., form M, listed as Crystalline form M
  Mass change (water uptake / weight gain) in the range of from 15-80% RH: 0.5-1.3 w-%
[4]; range of 15% RH and 80% RH
  dependence of water content on relative humidity: relatively constant water content
[5]; 8 weeks at 30° C./60% relative humidity
  conversion to crystal form I by XRPD after storage: did not convert to or show detectable traces of crystal form I
[5]; listed as crystal form M
  conversion to crystal form I by XRPD / storage stability: storage stable
[5]; listed as crystalline form M
  conversion to crystal form I by XRPD / storage stability: did not convert to or show detectable traces of crystal form I
[5]; 30° C. and 65% relative humidity
  time remaining stable as crystalline form M: at least 8 weeks
[5]; 40° C. and 75% relative humidity
  time remaining stable as crystalline form M: at least 8 weeks
[5]; at or below 40° C., relative humidity 15% RH to 75% RH
  polymorphic conversion on storage: does not result in polymorphic conversion

From patent publication US10961235B2, “Crystalline form of masitinib” (Sandoz AG, priority 2017, dated 2021)
